In patent US5925632A, “Derivatives of 3-pyrrolidylidene-2-one-cephalsporines” (Hoffmann-La Roche Inc., priority 1995, dated 1999):
Converted amounts (≈) assume the structure as drawn. Where a name gives a salt, the structure may show the parent alone.

Key:
Assay in all cases: MIC, agar dilution method in Mueller Hinton agar
Type in all cases: cell-based
[1] = test system: C. freundii 43; settings: Citrobacter freundii, read-out: MIC (Minimum Inhibiting Concentration)
Description: (§1) In vitro activity was determined by minimum inhibitory concentration in a microorganism spectum by the agar dilution method in Mueller Hinton agar.

[2] = test system: E. faecalis 6; settings: Enterococcus faecalis, read-out: MIC (Minimum Inhibiting Concentration)
Description: as §1

[3] = test system: E. coli 25922; settings: Escherichia coli, read-out: MIC (Minimum Inhibiting Concentration)
Description: as §1

[4] = test system: E. cloacae 908SSi; settings: Enterobacter cloacae, read-out: MIC (Minimum Inhibiting Concentration)
Description: as §1

[5] = test system: S. viridans group 016; settings: Streptococcus viridans, GROUP016, read-out: MIC (Minimum Inhibiting Concentration)
Description: as §1

[6] = test system: X. maltophilia 1AC739; settings: Stenotrophomonas maltophilia, read-out: MIC (Minimum Inhibiting Concentration)
Description: as §1

[7] = test system: M. catarrhalis RA21; settings: Moraxella catarrhalis, read-out: MIC (Minimum Inhibiting Concentration)
Description: as §1

[8] = test system: K. pneumoniae 418; settings: Klebsiella pneumoniae, read-out: MIC (Minimum Inhibiting Concentration)
Description: as §1

[9] = test system: P. mirabilis 2117; settings: Proteus mirabilis, read-out: MIC (Minimum Inhibiting Concentration)
Description: as §1

[10] = test system: S. aureus 6538; settings: Staphylococcus aureus, read-out: MIC (Minimum Inhibiting Concentration)
Description: as §1

[11] = test system: S. pyogenes B15; settings: Streptococcus pyogenes, read-out: MIC (Minimum Inhibiting Concentration)
Description: as §1

[12] = test system: L. monocytogenes BK23; settings: Listeria monocytogenes, read-out: MIC (Minimum Inhibiting Concentration)
Description: as §1

[13] = test system: S. agalactiae QK44; settings: Streptococcus agalactiae, read-out: MIC (Minimum Inhibiting Concentration)
Description: as §1

[14] = test system: C. freundii 902; settings: Citrobacter freundii, read-out: MIC (Minimum Inhibiting Concentration)
Description: as §1

[15] = test system: S. pneumoniae Q19; settings: Streptococcus pneumoniae, read-out: MIC (Minimum Inhibiting Concentration)
Description: as §1

[16] = test system: S. marcescens 69438; settings: Serratia marcescens, read-out: MIC (Minimum Inhibiting Concentration)
Description: as §1

[17] = test system: E. cloacae 908R; settings: Enterobacter cloacae, read-out: MIC (Minimum Inhibiting Concentration)
Description: as §1

[18] = test system: S. aureus 734 MRSA; settings: Staphylococcus aureus, read-out: MIC (Minimum Inhibiting Concentration)
Description: as §1

[19] = test system: M. morganii 6H-137; settings: Morganella morganii, 6H137, read-out: MIC (Minimum Inhibiting Concentration)
Description: as §1

[20] = test system: Actinetobacter sp. 51-156; settings: read-out: MIC (Minimum Inhibiting Concentration)
Description: as §1

[21] = test system: P. vulgaris 1028; settings: Proteus vulgaris, read-out: MIC (Minimum Inhibiting Concentration)
Description: as §1

[22] = test system: N. meningitidis 69480; settings: Neisseria meningitidis, read-out: MIC (Minimum Inhibiting Concentration)
Description: as §1

[23] = test system: P. aeruginosa 27853; settings: Pseudomonas aeruginosa, read-out: MIC (Minimum Inhibiting Concentration)
Description: as §1

[24] = test system: H. influenzae 1; settings: Haemophilus influenzae, read-out: MIC (Minimum Inhibiting Concentration)
Description: as §1

Row | SMILES | MIC [1] [µg/mL] | MIC [2] [µg/mL] | MIC [3] [µg/mL] | MIC [4] [µg/mL] | MIC [5] [µg/mL] | MIC [6] [µg/mL] | MIC [7] [µg/mL] | MIC [8] [µg/mL] | MIC [9] [µg/mL] | MIC [10] [µg/mL] | MIC [11] [µg/mL] | MIC [12] [µg/mL] | MIC [13] [µg/mL] | MIC [14] [µg/mL] | MIC [15] [µg/mL] | MIC [16] [µg/mL] | MIC [17] [µg/mL] | MIC [18] [µg/mL] | MIC [19] [µg/mL] | MIC [20] [µg/mL] | other results
1 | Nc1nc(/C(=N/O)C(=O)N[C@@H]2C(=O)N3C(C(=O)O)=C(/C=C4\CCN(CC5CCCCC5)C4=O)CS[C@H]23)cs1 [C, (6R,7R)-7-[(Z)-2-(2-amino-thiazol-4-yl)-2-(hydroxyiminoacetylamino]-3-[(E)-1-cyclohexylmethyl-2-oxo-pyrrolidin-3-ylidenemethyl]-8-oxo-5-thia-1-azabicyclo[4.2.0]oct-2-ene-2-carboxylic acid trifluoroacetate] | 8 | 2 | 1 | 2 | 0.5 | > 32 | 16 | 1 | 0.5 | 1 | ≤ 0.06 | 4 | 0.25 | 1 | ≤ 0.06 | 4 | 16 | 8 | 4 | 16 | MIC [21]: 0.5 µg/mL
2 | C=CC1=C(C(=O)O)N2C(=O)[C@@H](NC(=O)/C(=N\O)c3csc(N)n3)[C@H]2SC1 [Cefdinir, reference compound] | > 32 | 8 (≈ 20.2 µM) | 0.25 (≈ 0.632 µM) | 32 (≈ 80.9 µM) | 2 (≈ 5.06 µM) | > 32 | 1 (≈ 2.53 µM) | 0.12 (≈ 0.303 µM) | 0.12 (≈ 0.303 µM) | 0.5 (≈ 1.26 µM) | ≤ 0.06 | 16 (≈ 40.5 µM) | 0.25 (≈ 0.632 µM) | 16 (≈ 40.5 µM) | 0.25 (≈ 0.632 µM) | 16 (≈ 40.5 µM) | > 32 | > 32 | 8 (≈ 20.2 µM) | > 32 | MIC [21]: 1 µg/mL (≈ 2.53 µM); MIC [22]: ≤ 0.06 µg/mL; MIC [23]: > 32 µg/mL; MIC [24]: 0.5 µg/mL (≈ 1.26 µM)
3 | CO/N=C(\C(=O)N[C@@H]1C(=O)N2C(C(=O)O)=C(CSc3nc(=O)c(=O)[nH]n3C)CS[C@H]12)c1csc(N)n1 [Ceftriaxone, [6R-[6a,7b(Z)]]-7-([[2-Amino-4-thiazolyl)(methoxyimino)acetyl]amino]-8-oxo-3-[[(1,2,5,6-tetrahydro-2-methyl-5,6dioxo-1,2,4-triazin-3-yl)thio]methyl]-5-thia-1-azabicyclo[4.2.0]oct-2-ene-2-carboxylic acid, reference compound] | 32 (≈ 57.7 µM) | > 32 | ≤ 0.06 | 0.25 (≈ 0.451 µM) | 0.25 (≈ 0.451 µM) | > 32 | 1 (≈ 1.8 µM) | ≤ 0.06 | ≤ 0.06 | 4 (≈ 7.21 µM) | ≤ 0.06 | > 16 | ≤ 0.06 | 0.25 (≈ 0.451 µM) | ≤ 0.06 | 0.25 (≈ 0.451 µM) | > 32 | > 32 | ≤ 0.06 | 32 (≈ 57.7 µM) | MIC [21]: 0.12 µg/mL (≈ 0.216 µM); MIC [22]: ≤ 0.01 µg/mL; MIC [23]: 16 µg/mL (≈ 28.9 µM); MIC [24]: ≤ 0.06 µg/mL

More lines, in order of falling MIC [1], values ahead:

Row | MIC [1] [µg/mL] | MIC [2] [µg/mL] | MIC [3] [µg/mL] | MIC [4] [µg/mL] | MIC [5] [µg/mL] | MIC [6] [µg/mL] | MIC [7] [µg/mL] | MIC [8] [µg/mL] | MIC [9] [µg/mL] | MIC [10] [µg/mL] | MIC [11] [µg/mL] | MIC [12] [µg/mL] | MIC [13] [µg/mL] | MIC [14] [µg/mL] | MIC [15] [µg/mL] | MIC [16] [µg/mL] | MIC [17] [µg/mL] | MIC [18] [µg/mL] | MIC [19] [µg/mL] | MIC [20] [µg/mL] | SMILES | other results
4 | 8 | 2 | 1 | 2 | 1 | > 32 | 16 | 1 | 0.25 | 1 | ≤ 0.06 | 4 | 0.5 | 1 | ≤ 0.06 | 4 | 32 | 16 | 0.5 | 32 | CC(C)(C)CN1CC/C(=C\C2=C(C(=O)O)N3C(=O)[C@@H](NC(=O)/C(=N\O)c4csc(N)n4)[C@H]3SC2)C1=O [B, (6R,7R)-7-[(Z)-2-(2-amino-thiazol-4-yl)-2-(hydroxyiminoacetylamino]-3-[(E)-1-(2,2-dimethyl-propyl)-2-oxo-pyrrolidin-3-ylidenemethyl]-8-oxo-5-thia-1-azabicyclo[4.2.0]oct-2-ene-2-carboxylic acid trifluoroacetate] | MIC [21]: 4 µg/mL
5 | 4 | 1 | 0.25 | 0.5 | ≤ 0.06 | > 32 | 1 | 0.5 | 0.25 | 1 | ≤ 0.06 | 4 | 0.25 | 0.25 | ≤ 0.06 | 1 | 16 | 4 | 0.25 | 16 | CC(C)CN1CC/C(=C\C2=C(C(=O)O)N3C(=O)[C@@H](NC(=O)/C(=N\O)c4csc(N)n4)[C@H]3SC2)C1=O.O=C(O)C(F)(F)F [A, (6R,7R)-7-[(Z)-2-(2-amino-thiazol-4-yl)-2-hydroxyiminoacetylamino]-3-[(E)-1-isobutyl-2-oxo-pyrrolidin-3-ylidenemethyl]-8-oxo-5-thia-1-azabicyclo[4.2.0]oct-2-ene-2-carboxylic acid trifluoroacetate] | –
